Test results reported in US6911470B1, “Polyoxometalate compounds as antiviral agents” (priority 1988, dated 2005).
Like-named read-outs stand apart in the source and are kept apart here.

Columns and labels:
[1] = tested on: Vero cells; test: Cytotoxicity assay in Vero cells; type: cell-based; conditions: for IC50: Table 2, >100 μM = Nontoxic, read-out: IC50 Toxicity Vero Cells; for Toxicity Vero Cells, percent at given concentration: 100 μM
Description: Cell culture assays for heroes simplex viruses. Mycoplasma-free Vero cells, obtained from Flow Laboratory (McLean, Va.), were used for the plaque assays. The methodologies for the plaque reduction and cytotoxicity assays have been previously described (Schinazi et al, Antimicrob. Agents Chemother. 22, 499-507, 1982).

[2] = tested on: human PBM cells; test: Cytotoxicity assay on uninfected PHA stimulated human PBMC (trypan blue); type: cell-based
How it was run: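 Uninfected PHA-stimulated human PBMC at 2×10^5 cells/ml were cultured with or without drug for 6 days. Viability was counted by trypan blue exclusion on a hemacytometer. IC50 was derived by the median-effect method.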

[3] = tested on: HSV-2; test: Plaque reduction assay for herpes simplex viruses in Vero cells; type: cell-based, herpes simplex virus type 2; conditions: Table 2, read-out: EC-50 HSV-2
Protocol: Cell culture assays for heroes simplex viruses. Mycoplasma-free Vero cells, obtained from Flow Laboratory (McLean, Va.), were used for the plaque assays. The methodologies for the plaque reduction and cytotoxicity assays have been previously described (Schinazi et al, Antimicrob. Agents Chemother. 22, 499-507, 1982). Median-effect method. Dose-effect relationships were analyzed by the median-effect equation (Chou et al, Adv. Enz. Regul. 22, 27-55, 1984). The slope (m) and median effective and inhibitory concentration (EC50 and IC50) values were obtained by using a computer program developed by Chou and Chou (Chou et al, Elsevier-Biosoft, Elsevier Science Publishers, Cambridge, U.K., 1985).

[4] = target: T1, HIV-1 reverse transcriptase (Human immunodeficiency virus type 1 group M subtype B, UniProt P04585); test: Evaluation of compounds on purified retroviral RT (cell-free, virion-derived); type: biochemical; conditions: Table 2; read-out: EC-50 Cell-Free RT (virion-derived)
T1 construct: HIV-1 RT was isolated from detergent disrupted virions; made in house; host or cells: virions pelleted from culture fluid of HIV-1-infected PHA-stimulated human PBMC; DEAE-cellulose and phosphocellulose chromatography
How it was run: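 Enzyme was HIV-1 RT partially purified from virions of infected PHA-stimulated PBMC by DEAE-cellulose and phosphocellulose chromatography. Reactions at pH 8.0 with 2 mM MgCl2, 50 mM KCl, 3 μg/ml (rA)·(dT)12-18 template and 1 μM [3H]TTP, 60 min at 37 °C. IC50 from median-effect analysis.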

[5] = Table 2, >100 μM = Nontoxic, read-out: IC50 Toxicity PBM Cells
[6] = Table 1, read-out: IC50 Toxicity in Human PBM Cells

Molecule | IC50 ([1]; Chlorocebus sabaeus, Vero) | IC50 ([2]; Homo sapiens, PBMC, Table 1, read-out: IC50 Toxicity in Human PBM Cells) | IC50 ([2]; Homo sapiens, PBMC, Table 2, >100 μM = Nontoxic, read-out: IC50 Toxicity PBM Cells) | EC50 ([3]; Human alphaherpesvirus 2, Vero) | IC50 [1] | EC50 [4] | IC50 [2, 5] | EC50 [3] | IC50 [2, 6] | Toxicity Vero Cells, percent at given concentration [1] | Toxicity PBM Cells, percent at given concentration ([2]; 100 μM) | Toxicity PBM Cells, percent at given concentration ([2]; 200 μM)
Cc1cn([C@H]2C[C@H](N=[N+]=[N-])[C@@H](CO)O2)c(=O)[nH]c1=O [Formula 22, 3′-azido-3′-deoxythymidine, reference compound] | 29 µM | > 100 µM | > 100 µM | > 100 µM |  |  |  |  |  |  |  | 
(ArgH^+)m(H^+)4-mST, where m=1-4 [(ARGH^+)nH^+(4−n)ST] |  |  |  |  | > 100 µM | 14.2 µM | > 100 µM | < 1 µM |  |  |  | 
(Me4N)4W10O32 [Formula 19] |  |  |  |  | > 100 µM | 10.1 µM |  | 8.78 µM | > 100 µM |  |  | 
(NH4)4W10O32 [Formula 18] |  |  |  |  | > 100 µM | 24.2 µM | > 100 µM | 9.7 µM | 115 µM |  |  | 
(NH4)6P2W18O62 [Formula 14] |  |  |  |  |  | 0.13 µM |  | 0.24 µM | 1.8 µM | 83%, | 76%, | 
H3PW12O40 [Formula 2] |  |  |  |  | 10 µM | > 100 µM |  | 18.7 µM | > 100 µM |  |  | 
H4SiW12O40 [Formula 3] |  |  |  |  | 80 µM | 26.1 µM |  | 1.5 µM | > 200 µM |  |  | 
H5BW12O40 [Formula 4] |  |  |  |  | 85 µM | 2.6 µM |  |  | 126 µM |  |  | 76%,
H6P2W18O62 [Formula 13] |  |  |  |  |  | 0.14 µM |  | 0.18 µM | 6.2 µM | 81.9%, | 90%, | 
